Experimental data from patent publication US7129271B2, “Compounds for pest control and methods for their use” (The United States of America as represented by the …, priority 2000, dated 2006).
Values after ≈ are worked out from the molar mass of the structure shown. Where two headings read alike, the source gives them in different places.

Tests used:
I. scapularis nymphs = experiment: Tick bioassay, modified disposable pipette method, treated vials (Example 9); assay type: in vivo, Ixodes scapularis
Description: Tick Colonies. […] There was no known pesticide used at this location. Ticks were maintained at 21° C., 90% RH, and received a 16:8 h (light:dark) cycle as described in […]. Med. […] Tick and Flea Bioassays. […] A control treated with acetone only was run with each series. Tick and flea susceptibility was evaluated using a modified disposable pipette method. See, Barnard, D. R., et al., J. Econ. […] Three to 4 holes were made in the plastic cap to allow for air exchange. Nymphal ticks and adult fleas were then placed directly into the vials using forceps. Vials containing ticks or fleas were placed in desiccators for 24 h at 21° C. and 90% RH. […] For each time point, if ticks were incapable of movement, maintaining normal posture, leg coordination, ability to right themselves, or any signs of life, they were considered moribund or dead.

X. cheopis adults = experiment: Flea bioassay, treated vials (Example 9); assay type: in vivo
Description: Flea Colonies. Adult X. cheopis fleas (1–3 wk old) were obtained from a colony founded more than eight years ago using adults received from Tom Schwan, Rocky Mountain Laboratories, Hamilton, Mont. The area from which these original adult fleas were obtained, and the resulting colony, have no known histories of pesticide exposure.
(§1) Tick and Flea Bioassays. Concentrations of the compounds were prepared by 2-fold serial dilutions of a 0.5% (wt:vol) solution of the extracts in acetone. […] A control treated with acetone only was run with each series. Tick and flea susceptibility was evaluated using a modified disposable pipette method. See, Barnard, D. R., et al., J. Econ. Entomol.
(§2) The inner surface of 2-dram friction cap vials were treated with the compound/acetone solution, or acetone only as a control, and left to air-dry overnight. Three to 4 holes were made in the plastic cap to allow for air exchange. Nymphal ticks and adult fleas were then placed directly into the vials using forceps. Vials containing ticks or fleas were placed in desiccators for 24 h at 21° C. and 90% RH. Morbidity and mortality was recorded at 1, 2, 4, 8, and 24 h after initial exposure.

Ae. aegypti adults = experiment: Mosquito bottle bioassay (Example 9); assay type: in vivo
Description: Mosquito Colonies. Aedes aegypti adult mosquitoes were obtained from an existing colony at the Centers for Disease Control and Prevention (CDC), Division of Vector-Borne Infectious Diseases (DVBID), Fort Collins, Colo. This colony has been maintained for over fifteen years with no known history of exposure to pesticides. Mosquitoes were reared at 28° C., 85% RH, and a 14:10 h (light:dark) cycle. Larvae were grown in de-ionized water and fed ground liver powder solution ad libitum. Fourth instars were removed and placed in emergence cages, and adults were fed a 2% sucrose solution until assayed. Adults were exposed to test products at 4–7 d after emergence.
(§3) Mosquit Bioassay. Adult mosquitoes were tested using the bottle bioassay method of Brogden, W. G., and McAllister, J. C., J. Am. Mosq. Control Assoc. 14:159–64 (1998), with minor modifications. Natural product extracts were two-fold serially diluted for a total of 8 concentrations ranging from 0.002% to 0.25% in 1.5 ml of acetone. Individual dilutions were added to 250 ml Wheaton glass bottles and capped. Bottles were manipulated to evenly coat all inner surfaces. The caps were removed and bottles were allowed to air-dry overnight. Once bottles were completely dry, 10–50 adult mosquitoes were aspirated into the bottles. Mosquitoes were held in the bottles for 24 h at 23° C. and 85% RH. Morbidity and mortality were recorded at 15, 30, 45, and 60 min and 24 hour intervals. One bottle for each replicate was treated with acetone only and served as a control. The dose-mortality data was evaluated with probit analysis, using the LdP Line software, to determine LC50 and LC90 values.

[1] = system: nymphal Ixodes scapularis; experiment: Treated-vial biocidal screening, 2% acetone solutions (Example 2); assay type: in vivo
Description: (§4) Samples of the compounds listed below Were obtained from Dr. Karchesy, a co-inventor, and screened for biocidal activities against nymphal Ixodes scapularis. In this example, 2% acetone solutions (wt./vol.) of the compounds were applied to inner surfaces of 2-dram friction cap vials. Vials and caps were treated then allowed to dry for a minimum of 4 hours before placing 10 nymphs in each container. These same vials were used to challenge additional nymphs and adult I. scapularis ticks and adult Xenopsylla cheopis fleas through five weeks to observe any possible residual activity.
(§5) Numbers in parentheses refer to length of treatment in terms of hours (h) or weeks (wk). Data is presented in terms of number killed/number tested. For test periods longer than 24 hours, the treated vials were allowed to sit for the stated period after drying (72 h, 4 wk, or 5 wk) and each group of arthropods was added to the vials for the final 24 h of the test period.

[2] = system: adult I. scapularis ticks; experiment: Treated-vial biocidal screening, residual challenge (Example 2); assay type: in vivo, Ixodes scapularis; settings: treated vials sat 4 wk; arthropods added for final 24 h
Description: as §4, §5

[3] = system: adult Xenopsylla cheopis fleas; experiment: as above; assay type: in vivo; settings: treated vials sat 5 wk; arthropods added for final 24 h
Description: as §4, §5

Ixodes scapularis nymphs = experiment: Residual activity, treated vials aged before loading (Example 9); assay type: in vivo
Description: as §1, with “acetone. The approximate toxicity of individual compounds was determined with a total of 8 doses ranging from 0.002% to 0.25%.” for “acetone.”, “Entomol. 74:466–69 (1981).” for “Entomol.”
as §2, with “Groups of 10 nymphal I. scapularis and X. cheopis fleas were used in all tests, resulting in a total of 5,240 nymphs and 4,860 fleas exposed to the compounds. The” for “The”

[4] = system: Xenopsylla cheopis adults; experiment: as above; assay type: in vivo
Description: as §1, with “acetone. The approximate toxicity of individual compounds was determined with a total of 8 doses ranging from 0.002% to 0.25%.” for “acetone.”, “Entomol. 74:466–69 (1981).” for “Entomol.”
as §2, with “Groups of 10 nymphal I. scapularis and X. cheopis fleas were used in all tests, resulting in a total of 5,240 nymphs and 4,860 fleas exposed to the compounds. The” for “The”

Aedes aegypti adults = experiment: Residual activity, treated bottles aged before loading (Example 9); assay type: in vivo
Description: as §3

[5] = system: ticks, fleas, and mosquitoes; experiment: Residual activity, overall statements for ticks, fleas and mosquitoes (Example 9); settings: 1 to 4 weeks after treatment
[6] = 24 h exposure, 95% CI in parentheses
[7] = residual activity at 1 week after treatment
[8] = residual activity at 2 weeks after treatment
[9] = residual activity at 4 weeks after treatment
[10] = Ixodes scapularis, 24 h, 24 h exposure, 95% CI in parentheses, read-out: LC90
[11] = Xenopsylla cheopis, 24 h, 24 h exposure, 95% CI in parentheses, read-out: LC50
[12] = Xenopsylla cheopis, 24 h, 24 h exposure, 95% CI in parentheses, read-out: LC90
[13] = Aedes aegypti, 24 h, 24 h exposure, 95% CI in parentheses, read-out: LC50
[14] = Aedes aegypti, 24 h, 24 h exposure, 95% CI in parentheses, read-out: LC90 (the source's name)

Compound | LC50 (I. scapularis nymphs; Ixodes scapularis, 24 h) | LC50 (I. scapularis nymphs; [6]) | LC50 (X. cheopis adults; [6]) | LC50 (Ixodes scapularis nymphs; [7]) | LC90 (Ixodes scapularis nymphs; [7]) | LC50 [4, 7] | LC90 [4, 7] | LC50 (Aedes aegypti adults; [7]) | LC90 (Aedes aegypti adults; [7]) | LC50 (Aedes aegypti adults; [8]) | LC90 (Aedes aegypti adults; [8]) | residual activity (in words) [5] | LC90 (I. scapularis nymphs; [10]) | LC50 (X. cheopis adults; [11]) | LC90 (X. cheopis adults; [12]) | LC50 (Ae. aegypti adults; [13]) | EC90 (Ae. aegypti adults; [14]) | further results
Cc1ccc(C(C)C)cc1O [Compound 4, Carvacrol] | 68 µg/mL (≈ 453 µM) | – | – | – | – | – | – | – | – | – | – | – | – | – | – | – | – | LC90 (I. scapularis nymphs; Ixodes scapularis, 24 h, read-out: LC90): 140 µg/mL (≈ 932 µM); LC50 (X. cheopis adults; Xenopsylla cheopis, 24 h): 59 µg/mL (≈ 393 µM); LC90 (X. cheopis adults; Xenopsylla cheopis, 24 h, read-out: LC90): 140 µg/mL (≈ 932 µM); LC50 (Ae. aegypti adults; Aedes aegypti, 24 h): 51 µg/mL (≈ 339 µM); EC90 (Ae. aegypti adults; Aedes aegypti, 24 h, read-out: LC90): 140 µg/mL (≈ 932 µM)
C=C(C)[C@@H]1CCC2=CCC[C@@H](C)[C@]2(C)C1 [Compound 5, Valencene] | – | 0.598 percent concentration, wt:vol | 0.041 (0.034–0.049) percent concentration, wt:vol | – | – | – | – | – | – | – | – | – | – | – | – | – | – | I. scapularis nymphs (24 h), number killed/number tested ([1]; 2% acetone solution (wt./vol.) dried in vials, 24 h): 10/10; I. scapularis nymphs (72 h), number killed/number tested ([1]; treated vials sat 72 h, arthropods added for final 24 h): 0/5; I. scapularis adults (4 wk), number killed/number tested [2]: 0/5; X. cheopis adults (5 wk), number killed/number tested [3]: 0/5; LC90 (I. scapularis nymphs; [6]): 44.837 percent concentration, wt:vol; LC90 (X. cheopis adults; [6]): 0.063 (0.052–0.093) percent concentration, wt:vol; LC50 (Ae. aegypti adults; [6]): 0.015 (0.008–0.029) percent concentration, wt:vol; LC90 (Ae. aegypti adults; [6]): 0.037 (0.031–0.162) percent concentration, wt:vol
C=C(C)[C@@H]1CCC2=CC(=O)C[C@@H](C)[C@]2(C)C1 [Compound 8, Nootkatone] | – | 0.0061 (0.005–0.0072) percent concentration, wt:vol | 0.0029 (0.002–0.0038) percent concentration, wt:vol | 0.025 percent concentration, wt:vol | 0.071 percent concentration, wt:vol | 0.02 (0.016–0.026) percent concentration, wt:vol | 0.053 (0.04–0.082) percent concentration, wt:vol | 0.0065 percent concentration, wt:vol | 0.014 percent concentration, wt:vol | 0.0067 (0.0058– percent concentration, wt:vol | 0.012 (0.01–0.015) percent concentration, wt:vol | considerable biological activity | – | – | – | – | – | LC50 (X. cheopis adults; 24 h exposure, 95% CI in parentheses, listed as compound 8): 0.0029 percent concentration, wt:vol; LC50 (Ixodes scapularis nymphs; [8]): 0.019 (0.014–0.024) percent concentration, wt:vol; LC90 (Ixodes scapularis nymphs; [8]): 0.056 (0.04–0.094) percent concentration, wt:vol; LC50 (Ixodes scapularis nymphs; [9]): 0.25 percent concentration, wt:vol; LC90 (Ixodes scapularis nymphs; [9]): 0.71 percent concentration, wt:vol; LC50 [4, 8]: 0.018 (0.013–0.024) percent concentration, wt:vol; LC90 [4, 8]: 0.081 (0.054–0.156) percent concentration, wt:vol; LC50 [4, 9]: 0.035 (0.026–0.051) percent concentration, wt:vol; LC90 [4, 9]: 0.161 (0.098–0.387) percent concentration, wt:vol; LC50 (Aedes aegypti adults; [9]): 0.02 percent concentration, wt:vol; LC90 (Aedes aegypti adults; [9]): 0.29 percent concentration, wt:vol
C=C(C)[C@@H]1CCC2=CC(=O)C[C@@H](C)[C@]2(C)C1 [Compound 9, Nootkatone] | – | 0.0033 (0.0027–0.004) percent concentration, wt:vol | 0.0066 (0.0046–0.0086) percent concentration, wt:vol | 0.0084 (0.005–0.013) percent concentration, wt:vol | 0.08 (0.045–0.22) percent concentration, wt:vol | 0.043 percent concentration, wt:vol | 0.259 percent concentration, wt:vol | 0.0089 (0.0077–0.01) percent concentration, wt:vol | 0.018 (0.015–0.023) percent concentration, wt:vol | 0.0042 (0.0036– percent concentration, wt:vol | 0.0088 (0.0074–0.011) percent concentration, wt:vol | considerable biological activity | – | – | – | – | – | LC50 (Ae. aegypti adults; [6]): 0.0075 percent concentration, wt:vol; LC50 (Ixodes scapularis nymphs; [8]): 0.0089 (0.0068–0.012) percent concentration, wt:vol; LC90 (Ixodes scapularis nymphs; [8]): 0.027 (0.02–0.045) percent concentration, wt:vol; LC50 [4, 8]: 0.027 percent concentration, wt:vol; LC90 [4, 8]: 0.085 percent concentration, wt:vol; LC90 [4, 9]: 0.111 (0.08–0.193) percent concentration, wt:vol; LC50 (Aedes aegypti adults; [9]): 0.018 percent concentration, wt:vol; LC90 (Aedes aegypti adults; [9]): 0.036 percent concentration, wt:vol
C=C(C=O)C1CCC2=CCC[C@@H](C)[C@]2(C)C1 (stereo partly drawn) [Compound 15, valencene-13-aldehyde] | 59 µg/mL (≈ 270 µM) | – | – | 0.026 (0.02–0.033) percent concentration, wt:vol | 0.072 (0.052–0.121) percent concentration, wt:vol | 0.059 percent concentration, wt:vol | 0.148 percent concentration, wt:vol | 0.011 (0.0095–0.013) percent concentration, wt:vol | 0.027 (0.022–0.037) percent concentration, wt:vol | 0.014 (0.0074–0.025) percent concentration, wt:vol | 0.037 (0.029–0.127) percent concentration, wt:vol | considerable biological activity | 170 µg/mL (≈ 779 µM) | 49 µg/mL (≈ 224 µM) | 85 µg/mL (≈ 389 µM) | 24 µg/mL (≈ 110 µM) | 34 µg/mL (≈ 156 µM) | –
C=C(C)C1CCC23OC2C(=O)C[C@@H](C)[C@]3(C)C1 (stereo partly drawn) [Compound 17, nootkatone-1,10-epoxide] | 200 µg/mL (≈ 853 µM) | – | – | – | – | – | – | – | – | – | – | – | 550 µg/mL (≈ 2350 µM) | 170 µg/mL (≈ 725 µM) | 590 µg/mL (≈ 2520 µM) | 2230 µg/mL (≈ 9520 µM) | 20000 µg/mL (≈ 85400 µM) | –
C[C@@H]1CC(=O)C2OC23CCC(C2(C)CO2)C[C@@]13C (stereo partly drawn) [Compound 18, nootkatone-1,10-11,12-diepoxide] | 610 µg/mL (≈ 2440 µM) | – | – | – | – | – | – | – | – | – | – | – | 2450 µg/mL (≈ 9790 µM) | 640 µg/mL (≈ 2560 µM) | 4840 µg/mL (≈ 19300 µM) | 590 µg/mL (≈ 2360 µM) | 1140 µg/mL (≈ 4550 µM) | –
